Results: ChEMBL document CHEMBL1155373, “Triterpene compounds isolated from Acer mandshuricum and their anti-inflammatory activity” (Bioorg Med Chem Lett, 2010)

Columns and labels:
[1] = tested on: HL-60; assay: Growth inhibition of human HL60 cells by MTT assay; assay type: functional
[2] = tested on: SK-OV-3; assay: Growth inhibition of human SKOV3 cells by MTT assay; assay type: functional
[3] = tested on: A549; assay: Growth inhibition of human A549 cells by MTT assay; assay type: functional
[4] = tested on: HT-29; assay: Growth inhibition of human HT-29 cells by MTT assay; assay type: functional
[5] = tested on: RAW264.7; assay: Antiinflammatory activity in mouse RAW264.7 cells assessed as inhibition of LPS-stimulated TNFalpha production at 100 nM pretreated 1 hr before LPS challenge measured after 24 hrs by sandwich ELISA relative to control; assay type: functional
[6] = tested on: A2780; assay: Cytotoxicity against human A2780 cells; assay type: functional, cell-based

What does the source list for `C[C@H]1C(=O)CC[C@@H]2[C@]1(C)CC[C@H]1[C@@]2(C)CC[C@@]2(C)[C@@H]3CC(C)(C)CC[C@]3(C)CC[C@]12C` [FRIEDELINE]?
GI50 [1]: 12.2 µM; GI50 [2]: 12.7 µM; GI50 [3]: 11.1 µM; GI50 [4]: 13.5 µM; inhibition at 0.1 µM [5]: 23.5%

Which results are given for `CC(=O)O[C@H]1CC[C@@]2(C)[C@@]3(OC[C@@H](OO3)[C@]3(C)[C@@]2(C)CC[C@@]2(C)[C@@H]4CC(C)(C)CC[C@]4(C)CC[C@]32C)C1(C)C` [ACERANOL ACETATE]?
GI50 [1]: 13.7 µM; GI50 [2]: 12.8 µM; GI50 [3]: 11.4 µM; GI50 [4]: 14.6 µM; inhibition at 0.1 µM [5]: 21%

For `CC1(C)CC[C@]2(C)CC[C@]3(C)[C@H]4CC=C5[C@@H](CC[C@H](O)C5(C)C)[C@]4(C)CC[C@@]3(C)[C@@H]2C1` [GLUTINOL], which GI50 [1] is on record?
The GI50 was 16 µM.

And the GI50 [2]?
The GI50 was 12.6 µM.

What about the GI50 [3] of the same compound?
The GI50 was 11.6 µM.

And the GI50 [4]?
Its GI50 is 14.1 µM.

And the inhibition at 0.1 µM [5]?
The inhibition at 0.1 µM was 16.9%.

Which GI50 [1] does the source give for `O=C1c2c(O)ccc(O)c2C(=O)c2c(NCCNCCO)ccc(NCCNCCO)c21` [MITOXANTRONE] here?
The GI50 was 7.8 µM.

And the GI50 [2]?
Its GI50 is 11 µM.

And the GI50 [3]?
The GI50 was 8.3 µM.

What about the GI50 [4] of the same compound?
Its GI50 is 8.9 µM.

What does the source list for `CC(=O)O[C@H]1CC[C@]2(C)[C@H]3CC=C4[C@@H]5CC(C)(C)CC[C@]5(C)CC[C@@]4(C)[C@]3(C)CC[C@H]2C1(C)C` [beta-AMYRIN ACETATE]?
GI50 [1]: 14.6 µM; GI50 [2]: 14.6 µM; GI50 [3]: 11.4 µM; GI50 [4]: 12.5 µM; IC50 [6]: 12.5 µg/mL; inhibition at 0.1 µM [5]: 38.4%

How did the GI50 [1] turn out when `CC(=O)O[C@H]1CC[C@@H]2C(=CC[C@H]3[C@@]2(C)CC[C@@]2(C)[C@@H]4CC(C)(C)CC[C@]4(C)CC[C@]32C)C1(C)C` [GLUTINOL ACETATE] was run?
The GI50 was 16.2 µM.

What about the GI50 [2] of the same compound?
Its GI50 is 12.1 µM.

And the GI50 [3]?
The GI50 was 17.9 µM.

What about the GI50 [4] of the same compound?
The GI50 was 16.3 µM.

And the inhibition at 0.1 µM [5]?
The inhibition at 0.1 µM was 25.4%.

For `CC[C@H](CC[C@@H](C)[C@H]1CC[C@H]2[C@@H]3CC=C4C[C@@H](O[C@@H]5O[C@H](CO)[C@@H](O)[C@H](O)[C@H]5O)CC[C@]4(C)[C@H]3CC[C@]12C)C(C)C` [SITOGLUSIDE], which GI50 [1] is on record?
The GI50 was 50.8 µM.

What about the GI50 [2] of the same compound?
Its GI50 is 29.8 µM.

And the GI50 [3]?
Its GI50 is 35.5 µM.

And the GI50 [4]?
The GI50 was 46.8 µM.

And the inhibition at 0.1 µM [5]?
The inhibition at 0.1 µM was 29.3%.
